Patent US20220195462A1, “FULLY-HUMAN POST-TRANSLATIONALLY MODIFIED ANTIBODY THERAPEUTICS” (REGENXBIO INC., priority 2019, published 2022)
Values belong to the molecule of their own block, whether it stands above or below them.

Assays:
[1] = test system: carrageenan-induced paw edema in mice; test: Carrageenan paw edema model in mice; format: in vivo, mouse; details: C57BL/6 mice, compared with vehicle control group
Text: Inflammation models induced by carrageenan are frequently used acute inflammation models. Carrageenan (Cg) is a strong chemical agent that functions in stimulating the release of inflammatory and proinflammatory mediators, including bradykinin, histamine, tachykinins, reactive oxygen, and nitrogen species. Typical signs of inflammation include edema, hyperalgesia, and erythema, which develop immediately following the treatment of carrageenan. This example evaluated the effect of AAV-mediated gene delivery of Lanadelumab on carrageenan-induced paw edema in mice.
In total eighty young adult (8-9 weeks old) male C57BL/6 mice were used for this study. Paw edema was induced by a single subcutaneous (s.c.) injection of 30 μL of 0.7% or 1% carrageenan solution. […] Paw volume was measured using a digital Plethysmometer prior to carrageenan injection, and at 2, 4, 6, 8, 24 and 48 hours after injection. All animals were sacrificed 48 hours after carrageenan injection. Liver and paw specimens were also collected at the necropsy.

[2] = target: activated human plasma kallikrein (Enzyme Research Laboratories) (human) (UniProt P03952); test: cell-based or functional assay

Molecule: O=C(O)Cc1ccccc1Nc1c(Cl)cccc1Cl [diclofenac, Diclofenac]
paw volume after carrageenan injection ([1]; 0.7% Cg model): significant decrease on paw volume was observed only at 4 and 24 hours
paw volume after carrageenan injection ([1]; 1.0% Cg model): significantly decreased the paw volume at 2, 4, 6, 8 and 24 hours

suppression of pKal activity (PFR-AMC fluorogenic kinetic enzymatic assay, antibody dose response) [2]: 0.1 nM
B1: Lanadelumab (GenScript), purified IgG (antibody, V domains shown)
VH: EVQLLESGGGLVQPGGSLRLSCAASGFTFSHYIMMWVRQAPGKGLEWVSGIYSSGGITVYADSVKGRFTISRDNSKNTLYLQMNSLRAEDTAVYYCAYRRIGVPRRDEFDIWGQGTMVTVSS
VL: DIQMTQSPSTLSASVGDRVTITCRASQSISSWLAWYQQKPGKAPKLLIYKASTLESGVPSRFSGSGSGTEFTLTISSLQPDDFATYYCQQYNTYWTFGQGTKVEIKR

percent reduction in pKal activity (serum diluted 1:25, day 49 post-administration vs day -7; PFR-AMC assay) [2]: 50%
B2: vectorized lanadelumab (AAV8 ApoE.hAAT.L02-derived) in serum, or in total IgG purified from serum, of treated C57BL/6 mice (antibody, V domains shown)
VH: EVQLLESGGGLVQPGGSLRLSCAASGFTFSHYIMMWVRQAPGKGLEWVSGIYSSGGITVYADSVKGRFTISRDNSKNTLYLQMNSLRAEDTAVYYCAYRRIGVPRRDEFDIWGQGTMVTVSS
VL: DIQMTQSPSTLSASVGDRVTITCRASQSISSWLAWYQQKPGKAPKLLIYKASTLESGVPSRFSGSGSGTEFTLTISSLQPDDFATYYCQQYNTYWTFGQGTKVEIKR
